Measured values as given in patent US20240335547A1, “MODIFIED CHOLIC ACID CONJUGATES” (priority 2022, published 2024).
Values after ≈ are worked out from the molar mass of the structure shown. Values joined by “and” are separate entries in the source; they are usually repeats but may differ in a detail not shown here. Equal entries are not always repeated. Where two headings read alike, the source gives them in different places.

Columns and labels:
Calu-3 cells = experiment: Cytotoxicity Assay (MTS); assay type: cell-based; conditions: 24 h
Method: Calu-3 cells were seeded in 96-well plates one day prior to testing. At 80-90% confluency, growth medium was removed and replaced with a medium containing 50 μg/mL of compound 12 dilutions. All treatments were added in quadruplicate or quintuplicate wells. Plates were incubated for 24 h before being washed and replaced with fresh untreated growth medium. MTS was added to each well as recommended by the manufacturer's protocol (CellTiter 96 Aqueous One Solution Cell Proliferation Assay, Promega, Madison, WI, USA) and incubated for 3-4 h.
After incubation, absorbance was measured at 490 nm on a SpectraMax M5 (Molecular Devices, LLC, San Jose, CA, USA) plate reader with SoftMax Pro 6.2.1 software.

[1] = target: 3CL Protease (SARS-COV-2) (Severe acute respiratory syndrome coronavirus 2, UniProt P0DTD1); experiment: 3CL Protease (SARS-COV-2) Inhibitor Assay; assay type: biochemical
Method: The compound is dissolved in DMSO. A series of dilutions were prepared with 5% DMSO in 3CL Protease assay buffer. 10 μl of the dilution was added to a 50 μl reaction so that the final concentration of DMSO is 1% in all of the reactions. The compound was pre-incubated in duplicate at room temperature for 30 minutes in a mixture containing 3CL Pro assay buffer, 3CL enzyme and a test compound. After 30 minutes, the enzymatic reactions were initiated by the addition of 3CL Protease substrate. The enzymatic reaction proceeded for 4 hours at room temperature. Fluorescence intensity was measured at an excitation of 360 nm and an emission of 460 nm using a Tecan Infinite M1000 microplate reader.

[2] = Histopathological studies (H&E staining, imaging) of lungs of infected and non-infected mice; assay type: in vivo, BALB/c mice
Method: Group A: No infection, treated with PBS: Ten (10) BALB/c 6-weeks old female mice were used for this group. Mice were first anesthetized with isoflurane. Each mouse was intranasally treated with one dose of PBS (75 ul). Mice were sacrificed at 72 hrs, and 7 days post treatment. The lungs from these mice were collected for immunohistochemistry and cytokines analysis.
Group B: No infection, treated with Compound 12: Twenty (20) BALB/c 6-weeks old female mice was used for this group. Mice were first anesthetized with isoflurane. Each mouse was intranasally treated with one dose of 0.5 mg of […] diluted in PBS (75 ul). Mice were sacrificed at 24 hrs, 48 hrs, 72 hrs, and 7 days post treatment. The lungs from these mice were collected for immunohistochemistry and cytokines analysis.
Group C: Infection with 229E, treated with PBS: Thirty five (35) BALB/c 6-weeks old female mice were used for this group. Mice were first anesthetized with isoflurane. Each mouse was intranasally infected with 1×105 plaque forming unit (pfu) of HCoV-229E and then treated with PBS (75 ul) 24 hours later. Mice were sacrificed at 24 hrs post infection, and 24 hrs, 48 hrs, 72 hrs, 6 days, and 7 days post treatment. The lungs from these mice were collected for viral load, immunohistochemistry and cytokines analysis.
Group D: Infection with 229E, treated with Compound 12: Forty Five (45) BALB/c 6-weeks old female mice were used for this group. Mice were first anesthetized with isoflurane. Each mouse was intranasally infected with 1×10^5 pfu of HCoV-229E and then treated with 0.5 mg of Compound 12 diluted in PBS (75 ul) 24 hours later. Mice from this group were sacrificed at 24 hrs, 48 hrs, 72 hrs, 6 days and 7 days post treatment. The lungs from these mice were collected for viral load, immunohistochemistry and cytokines analysis.

MRSA = experiment: Bactericidal activity MIC/MBC; assay type: cell-based; conditions: Staphylococcus aureus
[3] = system: Calu-3 cells (ATCC #HTB-55); conditions: for % Luminescence / Luminescence intensity: 3 repeats

C[C@H](CCC(=O)NCCNC(=O)CCCC[C@@H]1SCC2NC(=O)NC21)C1CCC2C3C(C[C@H](OC(=O)CCN)[C@@]21C)[C@@]1(C)CC[C@@H](OC(=O)CCN)CC1C[C@H]3OC(=O)CCN (some centres unmarked) [Compound 12]
IC50 (i.e., CC50) (Calu-3 cells): 154 µM
IC50 [1]: > 10 µM
% Activity ([1]; 0.0003 μM, 2 repeats): 101%
activity at 0.0003 µM ([1]; 0.0003 μM, 2 repeats): 99%
activity at 0.001 µM ([1]; 0.001 μM, 2 repeats): 103%
activity at 0.003 µM ([1]; 0.003 μM, 2 repeats): 103%
% Activity ([1]; 0.01 μM, 2 repeats): 100%
activity at 0.01 µM ([1]; 0.01 μM, 2 repeats): 96%
activity at 0.03 µM ([1]; 0.03 μM, 2 repeats): 95%
% Activity ([1]; 0.1 μM, 2 repeats): 89%
activity at 0.1 µM ([1]; 0.1 μM, 2 repeats): 90%
% Activity ([1]; 0.3 μM, 2 repeats): 88%
activity at 0.3 µM ([1]; 0.3 μM, 2 repeats): 91%
% Activity ([1]; 1 μM, 2 repeats): 89%
activity at 1 µM ([1]; 1 μM, 2 repeats): 90%
% Activity ([1]; 3 μM, 2 repeats): 79%
activity at 3 µM ([1]; 3 μM, 2 repeats): 82%
inhibition at 10 µM ([1]; 10 μM): 24%
% Activity ([1]; 10 μM, 2 repeats): 77%
activity at 10 µM ([1]; 10 μM, 2 repeats): 75%
effect on the morphology of the lung ([2]; 3 days post treatment, 0.5 mg intranasally): does not cause significant detrimental effects
toxicity in vivo ([2]; dosage 0.5 mg/mice): does not exhibit significant toxicity in vivo
detection of compound in the lung tissues (staining and imaging) ([2]; intranasal, 0.5 mg): detected at 1-2 days post treatment but not in 3 days post treatment
MBC (MRSA): 1060 µg/mL (≈ 1190 µM)
MIC (MRSA): 530 µg/mL (≈ 595 µM)
% Luminescence ([3]; 20 uM): 102% and 97% and 101%
Luminescence intensity ([3]; 20 uM): 27,723 and 26,322 and 27,521
% Luminescence ([3]; 26.7 uM): 103% and 97% and 99%
Luminescence intensity ([3]; 26.7 uM): 27,962 and 26,310 and 26,857
% Luminescence ([3]; 35.6 uM): 105% and 103% and 104%
Luminescence intensity ([3]; 35.6 uM): 28,560 and 28,084 and 28,199
% Luminescence ([3]; 47.5 uM): 110% and 105% and 104%
Luminescence intensity ([3]; 47.5 uM): 29,946 and 28,451 and 28,177
% Luminescence ([3]; 63.3 uM): 111% and 110% and 106%
Luminescence intensity ([3]; 63.3 uM): 30,079 and 29,936 and 28,795
% Luminescence ([3]; 84.4 uM): 110% and 109% and 108%
Luminescence intensity ([3]; 84.4 uM): 29,975 and 29,736 and 29,345
% Luminescence ([3]; 112.5 uM): 108% and 106% and 105%
Luminescence intensity ([3]; 112.5 uM): 29,458 and 28,788 and 28,587
% Luminescence ([3]; 150 uM): 107% and 104% and 106%
Luminescence intensity ([3]; 150 uM): 29,194 and 28,202 and 28,754
% Luminescence ([3]; 200 uM): 111% and 107% and 106%
Luminescence intensity ([3]; 200 uM): 30,150 and 29,181 and 28,872
CC50 ([3]; human, 3 days): > 200 µM
